Laboratory results from ChEMBL document CHEMBL5291721, “A preclinical secondary pharmacology resource illuminates target-adverse drug reaction associations of marketed drugs” (Nat Commun, 2023).

What was measured:
Progesterone receptor = target: T1, Progesterone receptor (Homo sapiens, UniProt P06401)
T1 sequence (P06401 whole entry): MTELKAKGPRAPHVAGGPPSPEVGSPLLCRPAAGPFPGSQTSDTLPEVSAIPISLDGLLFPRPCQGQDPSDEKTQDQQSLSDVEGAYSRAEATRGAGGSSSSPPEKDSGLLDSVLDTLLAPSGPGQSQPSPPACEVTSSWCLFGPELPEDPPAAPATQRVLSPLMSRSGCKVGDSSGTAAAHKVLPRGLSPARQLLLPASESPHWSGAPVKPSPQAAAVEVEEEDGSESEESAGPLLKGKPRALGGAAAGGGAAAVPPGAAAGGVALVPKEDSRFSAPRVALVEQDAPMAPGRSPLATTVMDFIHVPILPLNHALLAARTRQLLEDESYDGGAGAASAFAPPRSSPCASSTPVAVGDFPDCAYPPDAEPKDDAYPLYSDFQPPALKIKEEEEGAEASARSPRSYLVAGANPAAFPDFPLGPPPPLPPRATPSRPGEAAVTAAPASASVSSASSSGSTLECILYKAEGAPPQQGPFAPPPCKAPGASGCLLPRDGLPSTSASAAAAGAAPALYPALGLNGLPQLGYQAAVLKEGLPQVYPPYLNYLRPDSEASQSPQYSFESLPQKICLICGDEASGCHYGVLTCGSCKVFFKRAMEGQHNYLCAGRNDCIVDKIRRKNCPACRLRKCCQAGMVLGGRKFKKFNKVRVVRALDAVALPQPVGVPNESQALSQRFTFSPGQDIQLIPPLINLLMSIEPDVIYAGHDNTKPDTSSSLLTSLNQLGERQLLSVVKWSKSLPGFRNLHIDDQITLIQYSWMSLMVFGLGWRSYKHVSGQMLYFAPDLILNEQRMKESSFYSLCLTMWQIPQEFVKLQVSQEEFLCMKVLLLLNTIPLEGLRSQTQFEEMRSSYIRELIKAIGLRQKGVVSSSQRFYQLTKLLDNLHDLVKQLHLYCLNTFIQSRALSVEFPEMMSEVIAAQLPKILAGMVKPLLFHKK

[1] = target: Gamma-aminobutyric acid receptor subunit alpha-1 (Rattus norvegicus, UniProt P62813)
[2] = target: 5-hydroxytryptamine receptor 2B (Homo sapiens, UniProt P41595)
[3] = target: T2, Endothelin receptor type B (Homo sapiens, UniProt P24530)
T2 sequence (P24530 whole entry): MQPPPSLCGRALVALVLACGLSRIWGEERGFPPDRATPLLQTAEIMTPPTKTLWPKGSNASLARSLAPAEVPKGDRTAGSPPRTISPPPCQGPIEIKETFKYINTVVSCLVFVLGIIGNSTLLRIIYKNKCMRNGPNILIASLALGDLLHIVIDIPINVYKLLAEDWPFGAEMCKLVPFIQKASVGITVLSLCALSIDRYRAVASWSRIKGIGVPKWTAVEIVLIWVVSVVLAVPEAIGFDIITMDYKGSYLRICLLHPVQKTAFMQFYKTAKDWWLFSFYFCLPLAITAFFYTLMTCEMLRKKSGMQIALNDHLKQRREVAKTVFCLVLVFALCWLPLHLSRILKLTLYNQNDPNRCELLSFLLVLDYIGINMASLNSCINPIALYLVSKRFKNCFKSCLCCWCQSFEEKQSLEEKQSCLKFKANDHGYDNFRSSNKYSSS

Histamine H2 receptor = Histamine H2 receptor (Homo sapiens, UniProt P25021)
[4] = target: Neurotensin receptor type 1 (Homo sapiens, UniProt P30989)
D(4) dopamine receptor = target: T3, D(4) dopamine receptor (Homo sapiens, UniProt P21917)
T3 sequence (P21917 whole entry): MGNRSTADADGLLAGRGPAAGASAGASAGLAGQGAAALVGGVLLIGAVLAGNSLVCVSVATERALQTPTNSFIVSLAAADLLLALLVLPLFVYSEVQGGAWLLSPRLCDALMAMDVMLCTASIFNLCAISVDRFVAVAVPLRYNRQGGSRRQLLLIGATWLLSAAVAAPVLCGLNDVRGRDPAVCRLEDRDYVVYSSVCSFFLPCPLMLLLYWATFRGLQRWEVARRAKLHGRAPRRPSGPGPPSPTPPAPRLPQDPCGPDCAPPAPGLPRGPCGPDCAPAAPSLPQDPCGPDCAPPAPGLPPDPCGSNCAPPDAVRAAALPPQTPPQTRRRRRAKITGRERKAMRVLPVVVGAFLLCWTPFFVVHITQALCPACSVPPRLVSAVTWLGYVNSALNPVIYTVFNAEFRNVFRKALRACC

[5] = target: Voltage-dependent N-type calcium channel subunit alpha-1B (Rattus norvegicus, UniProt Q02294); assay type: functional
Further: assay procedure not described here.

Gamma-aminobutyric acid receptor subunit alpha-1, sequence (P62813 whole entry): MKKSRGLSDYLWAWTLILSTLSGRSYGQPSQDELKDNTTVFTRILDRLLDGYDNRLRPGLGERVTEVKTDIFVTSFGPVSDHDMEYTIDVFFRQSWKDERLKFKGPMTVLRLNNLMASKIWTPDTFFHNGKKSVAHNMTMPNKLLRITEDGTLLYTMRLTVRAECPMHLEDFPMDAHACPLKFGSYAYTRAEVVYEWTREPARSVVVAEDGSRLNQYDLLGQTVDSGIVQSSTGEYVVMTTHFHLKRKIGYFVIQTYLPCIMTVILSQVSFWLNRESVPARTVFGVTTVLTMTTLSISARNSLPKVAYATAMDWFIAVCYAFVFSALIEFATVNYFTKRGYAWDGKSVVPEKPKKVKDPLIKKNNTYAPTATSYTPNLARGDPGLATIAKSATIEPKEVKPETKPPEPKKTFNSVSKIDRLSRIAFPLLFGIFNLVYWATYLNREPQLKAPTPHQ
Voltage-dependent N-type calcium channel subunit alpha-1B, sequence (Q02294 whole entry): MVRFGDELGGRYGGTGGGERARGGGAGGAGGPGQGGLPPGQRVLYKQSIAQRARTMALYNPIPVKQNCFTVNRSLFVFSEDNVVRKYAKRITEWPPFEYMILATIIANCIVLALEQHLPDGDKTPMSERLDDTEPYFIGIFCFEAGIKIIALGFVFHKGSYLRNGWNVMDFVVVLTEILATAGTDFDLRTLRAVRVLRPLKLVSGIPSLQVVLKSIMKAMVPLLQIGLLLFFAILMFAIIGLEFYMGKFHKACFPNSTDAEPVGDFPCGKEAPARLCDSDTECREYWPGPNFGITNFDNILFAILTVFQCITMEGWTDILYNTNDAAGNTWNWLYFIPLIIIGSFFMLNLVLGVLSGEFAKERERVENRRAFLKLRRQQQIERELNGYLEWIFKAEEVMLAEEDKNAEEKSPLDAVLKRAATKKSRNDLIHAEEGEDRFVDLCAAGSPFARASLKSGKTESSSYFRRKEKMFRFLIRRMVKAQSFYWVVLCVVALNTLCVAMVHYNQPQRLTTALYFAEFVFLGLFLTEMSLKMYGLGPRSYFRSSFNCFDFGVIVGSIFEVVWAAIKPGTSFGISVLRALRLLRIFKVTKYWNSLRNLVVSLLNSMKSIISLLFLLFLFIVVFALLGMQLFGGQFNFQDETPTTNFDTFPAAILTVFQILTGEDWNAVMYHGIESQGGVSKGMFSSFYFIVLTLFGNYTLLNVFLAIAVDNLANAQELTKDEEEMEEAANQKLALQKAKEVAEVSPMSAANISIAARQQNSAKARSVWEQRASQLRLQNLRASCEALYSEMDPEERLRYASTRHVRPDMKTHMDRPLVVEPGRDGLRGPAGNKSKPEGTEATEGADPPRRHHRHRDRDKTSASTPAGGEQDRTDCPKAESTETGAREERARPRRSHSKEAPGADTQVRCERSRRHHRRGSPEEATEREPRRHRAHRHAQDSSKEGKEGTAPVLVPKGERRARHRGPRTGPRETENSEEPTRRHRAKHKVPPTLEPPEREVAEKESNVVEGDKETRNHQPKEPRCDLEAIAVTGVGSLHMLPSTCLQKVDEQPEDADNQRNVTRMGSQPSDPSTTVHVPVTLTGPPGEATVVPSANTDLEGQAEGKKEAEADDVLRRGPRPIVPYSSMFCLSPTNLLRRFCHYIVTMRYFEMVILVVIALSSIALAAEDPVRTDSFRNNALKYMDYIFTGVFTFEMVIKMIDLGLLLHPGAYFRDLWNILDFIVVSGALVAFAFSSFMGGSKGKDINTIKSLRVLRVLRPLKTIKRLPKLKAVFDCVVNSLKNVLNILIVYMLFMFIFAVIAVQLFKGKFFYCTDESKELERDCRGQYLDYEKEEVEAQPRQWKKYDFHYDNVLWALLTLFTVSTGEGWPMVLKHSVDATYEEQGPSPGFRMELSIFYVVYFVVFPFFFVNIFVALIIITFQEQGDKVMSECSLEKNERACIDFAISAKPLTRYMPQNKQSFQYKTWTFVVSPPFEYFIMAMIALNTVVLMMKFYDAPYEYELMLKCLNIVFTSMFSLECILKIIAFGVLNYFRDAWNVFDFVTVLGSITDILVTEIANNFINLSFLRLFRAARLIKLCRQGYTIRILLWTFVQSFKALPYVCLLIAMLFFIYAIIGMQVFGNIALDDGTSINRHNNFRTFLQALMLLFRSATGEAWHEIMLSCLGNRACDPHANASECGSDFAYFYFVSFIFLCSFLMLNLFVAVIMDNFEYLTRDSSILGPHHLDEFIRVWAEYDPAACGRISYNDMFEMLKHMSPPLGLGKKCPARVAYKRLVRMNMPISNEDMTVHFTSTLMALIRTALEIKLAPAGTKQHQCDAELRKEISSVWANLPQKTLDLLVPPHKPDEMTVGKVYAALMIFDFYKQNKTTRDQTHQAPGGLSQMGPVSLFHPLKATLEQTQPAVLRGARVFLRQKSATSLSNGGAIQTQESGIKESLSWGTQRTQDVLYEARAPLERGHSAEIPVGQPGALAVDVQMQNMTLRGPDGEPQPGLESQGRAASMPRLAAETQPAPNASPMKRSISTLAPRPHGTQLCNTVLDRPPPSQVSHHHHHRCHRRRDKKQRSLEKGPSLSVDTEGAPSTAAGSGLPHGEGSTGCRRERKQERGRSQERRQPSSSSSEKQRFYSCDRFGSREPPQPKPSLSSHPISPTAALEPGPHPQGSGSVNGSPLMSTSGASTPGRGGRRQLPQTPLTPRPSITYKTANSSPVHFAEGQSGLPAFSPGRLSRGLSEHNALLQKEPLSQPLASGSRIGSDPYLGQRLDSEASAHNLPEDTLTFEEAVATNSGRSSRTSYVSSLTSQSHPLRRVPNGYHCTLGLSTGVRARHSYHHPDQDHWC
Neurotensin receptor type 1, sequence (P30989 whole entry): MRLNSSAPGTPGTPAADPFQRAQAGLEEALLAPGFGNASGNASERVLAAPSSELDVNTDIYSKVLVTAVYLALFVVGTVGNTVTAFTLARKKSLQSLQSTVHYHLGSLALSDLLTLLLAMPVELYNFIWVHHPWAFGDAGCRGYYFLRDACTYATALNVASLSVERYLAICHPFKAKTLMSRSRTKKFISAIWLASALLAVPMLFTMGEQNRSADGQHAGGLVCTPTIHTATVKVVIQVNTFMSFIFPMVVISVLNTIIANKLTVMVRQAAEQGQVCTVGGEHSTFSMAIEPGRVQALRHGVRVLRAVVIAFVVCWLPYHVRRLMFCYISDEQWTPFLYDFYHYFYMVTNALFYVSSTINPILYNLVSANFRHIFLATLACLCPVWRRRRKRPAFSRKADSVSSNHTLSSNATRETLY
5-hydroxytryptamine receptor 2B, sequence (P41595 whole entry): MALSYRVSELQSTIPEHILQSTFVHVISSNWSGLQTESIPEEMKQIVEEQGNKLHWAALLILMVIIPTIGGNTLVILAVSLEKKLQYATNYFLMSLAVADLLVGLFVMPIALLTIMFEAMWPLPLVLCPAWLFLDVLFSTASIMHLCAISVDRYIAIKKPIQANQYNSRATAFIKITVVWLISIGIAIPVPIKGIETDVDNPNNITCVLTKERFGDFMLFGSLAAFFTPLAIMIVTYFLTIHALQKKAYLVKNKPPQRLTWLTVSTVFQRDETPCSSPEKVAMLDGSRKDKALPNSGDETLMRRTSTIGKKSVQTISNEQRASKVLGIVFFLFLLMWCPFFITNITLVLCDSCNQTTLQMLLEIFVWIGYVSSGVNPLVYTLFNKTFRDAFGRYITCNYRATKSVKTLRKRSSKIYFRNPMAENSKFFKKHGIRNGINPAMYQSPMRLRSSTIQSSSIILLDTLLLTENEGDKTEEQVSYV
Histamine H2 receptor, sequence (P25021 whole entry): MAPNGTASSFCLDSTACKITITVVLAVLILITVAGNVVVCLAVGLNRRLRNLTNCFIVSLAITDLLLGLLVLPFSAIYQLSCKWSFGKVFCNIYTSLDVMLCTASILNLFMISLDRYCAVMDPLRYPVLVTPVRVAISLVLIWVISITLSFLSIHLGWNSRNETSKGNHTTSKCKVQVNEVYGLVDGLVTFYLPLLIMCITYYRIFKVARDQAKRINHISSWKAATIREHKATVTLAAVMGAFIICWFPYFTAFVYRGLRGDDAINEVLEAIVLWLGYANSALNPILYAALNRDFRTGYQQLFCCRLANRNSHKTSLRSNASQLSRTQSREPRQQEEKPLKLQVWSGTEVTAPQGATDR

| SMILES | AC50 (Progesterone receptor) [µM] | AC50 [1] [µM] | further results |
| --- | --- | --- | --- |
| CCCSc1ccc2nc(NC(=O)OC)[nH]c2c1 [ALBENDAZOLE] | > 30 |  |  |
| CNC(=O)c1ccccc1Sc1ccc2c(/C=C/c3ccccn3)n[nH]c2c1 [AXITINIB] | > 30 |  |  |
| CCc1oc2ccccc2c1C(=O)c1cc(I)c(O)c(I)c1 [BENZIODARONE] |  | 17.1 |  |
| CN(C)CCn1nnnc1SCC1=C(C(=O)O)N2C(=O)[C@@H](NC(=O)Cc3csc(N)n3)[C@H]2SC1 [CEFOTIAM] |  | > 30 |  |
| COCc1c(C(C)C)nc(C(C)C)c(/C=C/[C@@H](O)C[C@@H](O)CC(=O)O)c1-c1ccc(F)cc1 [CERIVASTATIN] |  | > 30 |  |
| C[N+](C)(C)CCO [CHOLINE] |  | > 30 |  |
| CN(C)[C@@H](c1cccc(O)c1)[C@H]1CCCC[C@H]1O [CIRAMADOL] |  | > 30 |  |
| CN(C)CC(c1ccc(O)cc1)C1(O)CCCCC1 (centres undefined) [DESVENLAFAXINE] |  | > 30 |  |
| O=C(Cc1ccc(-c2ccccc2)cc1)Nc1ccccn1 [DIFENPIRAMIDE] |  | > 30 |  |
| Cc1cc(C#N)cc(C)c1Oc1nc(Nc2ccc(C#N)cc2)nc(N)c1Br [ETRAVIRINE] |  | > 30 |  |
| CCC1=C(C)CN(C(=O)NCCc2ccc(S(=O)(=O)NC(=O)N[C@H]3CC[C@H](C)CC3)cc2)C1=O [GLIMEPIRIDE] |  | > 30 |  |
| C[N+]1(C)CCC(OC(=O)C(O)(c2ccccc2)C2CCCC2)C1 (centres undefined) [GLYCOPYRRONIUM BROMIDE] | > 30 |  |  |
| C[C@]12CCC(=O)C=C1CC[C@@H]1[C@@H]2[C@@H](O)C[C@@]2(C)[C@H]1CC[C@]2(O)C(=O)CO [HYDROCORTISONE] | 7.61 |  | AC50 [2]: > 10 µM; AC50 [3]: > 30 µM; AC50 (Histamine H2 receptor): > 10 µM; AC50 [4]: > 30 µM; AC50 (D(4) dopamine receptor): > 10 µM; AC50 [5]: > 10 µM |
| CC(C)Nc1ncccn1 [ISAXONINE] |  | > 30 |  |
| N[C@@H](C(=O)N[C@@H]1C(=O)N2C(C(=O)O)=C(Cl)CC[C@H]12)c1ccccc1 [LORACARBEF ANHYDROUS] |  | > 30 |  |
| CN1C(C(=O)Nc2ccccn2)=C(O)c2sc(Cl)cc2S1(=O)=O [LORNOXICAM] | > 30 |  | AC50 [2]: > 10 µM |
| CC1(C)NC(=O)N(c2ccc([N+](=O)[O-])c(C(F)(F)F)c2)C1=O [NILUTAMIDE] |  | > 30 |  |
| CCCN1C[C@H](CSC)C[C@@H]2c3cccc4[nH]cc(c34)C[C@H]21 [PERGOLIDE] | > 30 |  | AC50 [2]: 0.0205 µM; AC50 [3]: > 30 µM; AC50 (Histamine H2 receptor): 3.77 µM; AC50 [4]: > 30 µM; AC50 [5]: > 10 µM |
| CN(C)S(=O)(=O)c1ccc2c(c1)N(CCCN1CCC(CCO)CC1)c1ccccc1S2 [PIPOTIAZINE] |  | > 30 |  |
| COCCCN1CCC(NC(=O)c2cc(Cl)c(N)c3c2OCC3)CC1 [PRUCALOPRIDE] |  | > 30 |  |
| CCC(=O)NCC[C@@H]1CCc2ccc3c(c21)CCO3 [RAMELTEON] |  | > 30 |  |
| CO[C@H]1C[C@@H]2CC[C@@H](C)[C@@](O)(O2)C(=O)C(=O)N2CCCC[C@H]2C(=O)O[C@H]([C@H](C)C[C@@H]2CC[C@@H](O)[C@H](OC)C2)CC(=O)[C@H](C)/C=C(\C)[C@@H](O)[C@@H](OC)C(=O)[C@H](C)C[C@H](C)/C=C/C=C/C=C/1C [SIROLIMUS] | > 30 | > 30 | AC50 [3]: > 30 µM; AC50 [4]: > 30 µM; AC50 [5]: > 10 µM |
| CCOC(=O)[C@H](CCc1ccccc1)N[C@@H](C)C(=O)N1[C@H](C(=O)O)C[C@H]2CCCC[C@@H]21 [TRANDOLAPRIL] |  | > 30 |  |
